“And” between values parts separate entries of the source, which are not always exact repeats. Identical values can stand only once. Inconclusive results and toxic doses are left out.
System: BDF1 mice, P388 leukemia ip, median survival T/C
Assay: NCI In Vivo Anticancer Drug Screen. Data for tumor model P388 Leukemia (intraperitoneal) in B6D2F1 (BDF1) mice
Conditions: endpoint: median survival time, higher = longer survival
Outline: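 Vehicle-dosed animals serve as the reference; survival of compound-dosed, tumour-implanted mice is divided by it.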

[1] = dose: 100.0 mg/kg/injection, schedule: Q01DX001 (ip), vehicle: saline with Tween-80
[2] = dose: 200.0 mg/kg/injection, schedule: Q01DX001 (ip), vehicle: saline with Tween-80
[3] = dose: 50.0 mg/kg/injection, schedule: Q01DX009 (ip), vehicle: saline with Tween-80
[4] = dose: 100.0 mg/kg/injection, schedule: Q01DX009 (ip), vehicle: saline with Tween-80
[5] = dose: 200.0 mg/kg/injection, schedule: Q01DX009 (ip), vehicle: saline with Tween-80
[6] = dose: 25.0 mg/kg/injection, schedule: Q01DX009 (ip), vehicle: saline
[7] = dose: 50.0 mg/kg/injection, schedule: Q01DX009 (ip), vehicle: saline
[8] = dose: 100.0 mg/kg/injection, schedule: Q01DX009 (ip), vehicle: saline
[9] = dose: 100.0 mg/kg/injection, schedule: Q04DX003 (ip), vehicle: saline
[10] = dose: 200.0 mg/kg/injection, schedule: Q01DX009 (ip), vehicle: saline
[11] = dose: 50.0 mg/kg/injection, schedule: Q01DX005 (ip), vehicle: saline with Tween-80
[12] = dose: 100.0 mg/kg/injection, schedule: Q01DX005 (ip), vehicle: saline with Tween-80
[13] = dose: 200.0 mg/kg/injection, schedule: Q01DX005 (ip), vehicle: saline with Tween-80
[14] = dose: 6.25 mg/kg/injection, schedule: Q01DX009 (ip), vehicle: saline
[15] = dose: 25.0 mg/kg/injection, schedule: Q04DX003 (ip), vehicle: saline
[16] = dose: 50.0 mg/kg/injection, schedule: Q04DX003 (ip), vehicle: saline
[17] = dose: 100.0 mg/kg/injection, schedule: Q04DX003 (ip), vehicle: saline with Tween-80
[18] = dose: 200.0 mg/kg/injection, schedule: Q04DX003 (ip), vehicle: saline with Tween-80
[19] = dose: 300.0 mg/kg/injection, schedule: Q01DX009 (ip), vehicle: saline with Tween-80
[20] = dose: 400.0 mg/kg/injection, schedule: Q01DX009 (ip), vehicle: saline with Tween-80
[21] = dose: 400.0 mg/kg/injection, schedule: Q04DX003 (ip), vehicle: saline with Tween-80
[22] = dose: 12.5 mg/kg/injection, schedule: Q01DX009 (ip), vehicle: saline with Tween-80
[23] = dose: 25.0 mg/kg/injection, schedule: Q01DX009 (ip), vehicle: saline with Tween-80
[24] = dose: 50.0 mg/kg/injection, schedule: Q04DX003 (ip), vehicle: saline with Tween-80

With `COC(=O)C(Cc1c[nH]c2ccccc12)NC(=O)C(Cc1c[nH]c2ccccc12)NC(=O)OC(C)(C)C` (configuration not stated) the T/C [1] was 90 % of control, the T/C [2] was 86 % of control and the T/C (dose: 400.0 mg/kg/injection, schedule: Q01DX001 (ip), vehicle: saline with Tween-80) was 90 % of control.
With `Nc1ccc(N=Nc2ccccc2)c(N)n1` the T/C (dose: 50.0 mg/kg/injection, schedule: Q04DX003 (ip), vehicle: Klucel (hydroxypropylcellulose) (HPC)) was 100 % of control and the T/C (dose: 100.0 mg/kg/injection, schedule: Q04DX003 (ip), vehicle: Klucel (hydroxypropylcellulose) (HPC)) was 100 % of control.
With `COc1cc(C2=CC(OC)(OC)C=C(C(C)(C)C)C2=O)c(O)c(C(C)(C)C)c1` the T/C [3] was 105 % of control, the T/C [4] was 108 % of control and the T/C [5] was 112 % of control.
`CCCCN(CCCC)CC(O)c1cc(Cl)cc2c1-c1ccc(Cl)cc1C2` (configuration not stated) was tested, and the T/C [3] was 105 % of control, the T/C [4] was 114 % of control and the T/C [5] was 98 % of control.
For `O=C(C[n+]1ccc2ccccc2c1)c1ccc(Br)cc1`, the T/C (dose: 7.03 mg/kg/injection, schedule: Q04DX003 (ip), vehicle: saline) was 100 % of control, the T/C (dose: 12.5 mg/kg/injection, schedule: Q01DX009 (ip), vehicle: saline) was 114 % of control and the T/C (dose: 14.06 mg/kg/injection, schedule: Q04DX003 (ip), vehicle: saline) was 108 % of control. The T/C [6] was 109 % of control, the T/C (dose: 28.12 mg/kg/injection, schedule: Q04DX003 (ip), vehicle: saline) was 100 % of control and the T/C [7] was 119 % of control. The T/C (dose: 56.25 mg/kg/injection, schedule: Q04DX003 (ip), vehicle: saline) was 95 % of control and the T/C (dose: 75.0 mg/kg/injection, schedule: Q01DX009 (ip), vehicle: saline) was 112 % of control.
In the case of `C/C(CCC(=O)O)=N/O`, the T/C [8] is reported as 110 % of control, the T/C [9] is reported as 104 % of control and the T/C [10] is reported as 120 % of control. For the same compound, the T/C (dose: 200.0 mg/kg/injection, schedule: Q04DX003 (ip), vehicle: saline) was 108 % of control and the T/C (dose: 400.0 mg/kg/injection, schedule: Q04DX003 (ip), vehicle: saline) was 116 % of control.
In the case of `O=C(O)C1CCC=CCC1`, the T/C (dose: 50.0 mg/kg/injection, schedule: Q04DX003 (ip), vehicle: other) is reported as 100 % of control, the T/C (dose: 100.0 mg/kg/injection, schedule: Q04DX003 (ip), vehicle: other) is reported as 100 % of control and the T/C (dose: 200.0 mg/kg/injection, schedule: Q04DX003 (ip), vehicle: other) is reported as 109 % of control.
`CCN(CC)C(=S)Oc1cc(C)nc(N2CCCC2)n1` was tested, and the T/C [11] was 95 % of control, the T/C [12] was 101 % of control and the T/C [13] was 97 % of control.
In the case of `C=CCOC(=O)c1ccco1`, the T/C (dose: 6.25 mg/kg/injection, schedule: Q01DX009 (ip), vehicle: Klucel (hydroxypropylcellulose) (HPC)) is reported as 116 % of control, the T/C (dose: 12.5 mg/kg/injection, schedule: Q01DX009 (ip), vehicle: Klucel (hydroxypropylcellulose) (HPC)) is reported as 108 % of control and the T/C (dose: 25.0 mg/kg/injection, schedule: Q01DX009 (ip), vehicle: Klucel (hydroxypropylcellulose) (HPC)) is reported as 108 % of control. For the same compound, the T/C (dose: 50.0 mg/kg/injection, schedule: Q01DX009 (ip), vehicle: Klucel (hydroxypropylcellulose) (HPC)) was 100 % of control.
`CN/N=C/c1c2c(O)c3c(O)c(C)c4c(c3c1O)C(=O)C(C)(O/C=C/C(OC)C(C)C(OC(C)=O)C(C)C(O)C(C)C(O)C(C)/C=C/C=C(/C)C(=O)N2)O4` (configuration not stated) was tested, and the T/C [3] was 90 % of control, the T/C [4] was 116 % of control and the T/C [5] was 117 % of control.
`CCCCCCCCCCCC[N+](C)(C)CC(O)C[N+](C)(C)CCCCCCCCCCCC` was tested, and the T/C (dose: 3.13 mg/kg/injection, schedule: Q01DX009 (ip), vehicle: saline) was 102 % of control and the T/C [14] was 107 % of control.
In the case of `O=C1NC(O)c2cc(CO)ccc2O1` (configuration not stated), the T/C [11] is reported as 100 % of control, the T/C [12] is reported as 104 % of control and the T/C [13] is reported as 109 % of control.
With `CN1CC([N+](=O)[O-])C(=O)C([N+](=O)[O-])C1` (configuration not stated) the T/C [11] was 92 % of control, the T/C [12] was 87 % of control and the T/C [13] was 103 % of control.
In the case of `CC(=O)CC(C)=O.CC(=O)CC(C)=O.c1cc[c]([Sn][c]2ccccc2)cc1`, the T/C (dose: 100.0 mg/kg/injection, schedule: Q01DX001 (ip), vehicle: Klucel (hydroxypropylcellulose) (HPC)) is reported as 160 % of control and the T/C (dose: 200.0 mg/kg/injection, schedule: Q01DX001 (ip), vehicle: Klucel (hydroxypropylcellulose) (HPC)) is reported as 166 % of control.
For `C(/C=C\c1ccccc1)=Nc1ccccc1`, the T/C [6] was 91 % of control, the T/C [15] was 95 % of control and the T/C [7] was 95 % of control. For the same compound, the T/C [16] was 100 % of control, the T/C (dose: 88.0 mg/kg/injection, schedule: Q01DX009 (ip), vehicle: saline with Tween-80) was 105 % of control and the T/C [8] was 104 % of control. The T/C [17] was 104 % of control, the T/C [9] was 100 % of control and the T/C (dose: 132.0 mg/kg/injection, schedule: Q01DX009 (ip), vehicle: saline with Tween-80) was 110 % of control. The T/C [18] was 118 % of control, the T/C [19] was 110 % of control and the T/C [20] was 150 % of control. For the same compound, the T/C [21] was 118 % of control.
With `COc1ccc(C=C2C(=O)N(C)C(=O)N(C)C2=O)cc1` the T/C (dose: 50.0 mg/kg/injection, schedule: Q01DX009 (ip), vehicle: other) was 119 % of control.
For `CC1CN(c2ccc([N+](=O)[O-])cc2)C(C)CN1` (configuration not stated), the T/C [15] was 100 % of control, the T/C [16] was 110 % of control and the T/C [9] was 90 % of control.
In the case of `S=c1[nH]c2nc(Cl)c(Cl)nc2[nH]1`, the T/C [22] is reported as 94 % of control, the T/C [23] is reported as 92 % of control and 115 % of control and the T/C [3] is reported as 102 % of control. The T/C [24] was 94 % of control, the T/C [4] was 94 % of control and 99 % of control and the T/C [17] was 92 % of control. The T/C [18] was 94 % of control and the T/C [19] was 105 % of control.
With `[CH3][Sn]([CH3])([Cl])[S]CCN` the T/C [14] was 123 % of control.
With `COC(=O)N1CCC2OC2C1` (configuration not stated) the T/C [7] was 99 % of control, the T/C [8] was 107 % of control and the T/C [10] was 100 % of control.
In the case of `C=CCCN1CCCC1`, the T/C [22] is reported as 88 % of control, the T/C (dose: 12.5 mg/kg/injection, schedule: Q04DX003 (ip), vehicle: saline with Tween-80) is reported as 100 % of control and the T/C [23] is reported as 100 % of control. The T/C (dose: 25.0 mg/kg/injection, schedule: Q04DX003 (ip), vehicle: saline with Tween-80) was 100 % of control and the T/C [24] was 95 % of control.
For `CC1(C)c2ccccc2C(C)(O)c2ccccc21`, the T/C [4] was 100 % of control, the T/C [17] was 100 % of control and the T/C [5] was 100 % of control. For the same compound, the T/C [18] was 96 % of control, the T/C [20] was 112 % of control and the T/C [21] was 96 % of control.
`O=C(O)c1onc2ccccc12` was tested, and the T/C [1] was 113 % of control and the T/C [2] was 90 % of control.
In the case of `N#CCC(=O)O`, the T/C (dose: 18.75 mg/kg/injection, schedule: Q01DX009 (ip), vehicle: saline with Tween-80) is reported as 100 % of control, the T/C (dose: 37.5 mg/kg/injection, schedule: Q01DX009 (ip), vehicle: saline with Tween-80) is reported as 100 % of control and the T/C (dose: 75.0 mg/kg/injection, schedule: Q01DX009 (ip), vehicle: saline with Tween-80) is reported as 90 % of control.
